Experimental findings from patent US10975082B2, “Inhibitor of FLT3 kinase and use thereof” (PRECEDO PHARMACEUTICALS CO., LTD, priority 2016, dated 2021) are described below.

Some results are limits rather than exact numbers.

Holding throughout (assay type): cell-based
Assay [1] deals with MOLM-14. Kind of assay: Cancer cell proliferation, Cell Titer-Glo, GI50. The settings on record: Homo sapiens; MOLM-14, 72 hours. The procedure:
(§1) Compounds of the invention were evaluated for their inhibitory effects on proliferation of cancer cells as well as the selectivity thereof by testing their effects on growth of cancer cells (Table 2).
(§2) In this example the following cells were selected: human acute myeloid leukemia cells MV-4-11 (expressing FLT3[ITD] mutant gene), human acute myeloid leukemia cells MOLM-13 (expressing FLT3[ITD] mutant gene and wild-type FLT3 gene), human acute myeloid leukemia cells MOLM-14 (expressing FLT3[ITD] mutant gene and wild-type FLT3 gene), human acute myeloid leukemia cells OCI-AML3 (expressing FLT3[A680V] mutant gene), human acute myeloid leukemia cells U937 (expressing wild-type FLT3 gene), and mouse pro-B cells BaF3, and the above cells were purchased from ATCC.
(§3) Then the number of viable cells was determined by quantification of ATP in living cells using Cell Titer-Glo® (Promega, the USA) Luminescent Cell Viability Assay kit and thereby GI50 was calculated.
On the technique in general: Cellular ATP, detected with luciferase, serves as a proxy for viable cell number.

The subject of assay [2] is MV-4-11. Kind of assay: Cancer cell proliferation, Cell Titer-Glo, GI50. The conditions noted are these: Homo sapiens, MV4-11; MV-4-11, 72 hours. The method, then:
as §1, §2, §3

Assay [3] relates to U937. Kind of assay: Cancer cell proliferation, Cell Titer-Glo, GI50. The settings on record: Homo sapiens, U-937; U937, 72 hours. The method, then: as §1, §2, §3
The test system of assay [4] is BaF3-FLT3 [ITD + D835Y]. Kind of assay: Cell proliferation, Cell Titer-Glo, GI50. The settings on record: Mus musculus, Ba/F3 FLT3-ITD, 72 hours. The method, then: as §1
(§4) Mouse BaF3-FLT3[ITD] (stably expressing FLT3[ITD] mutant activated kinase), mouse tel-BaF3-FLT3-D835Y (stably expressing FLT3[D835Y]mutant activated kinase), mouse tel-BaF3-BMX (stably expressing BMX kinase), mouse tel-FLT3-BaF3 (stably expressing FLT3 kinase), mouse BaF3-FLT3-ITD-D835Y (stably expressing FLT3[ITD+D835Y]mutant activated kinase), mouse BaF3-FLT3-ITD-F691L (stably expressing FLT3[ITD+F691L]mutant activated kinase), mouse tel-cKIT-BaF3 (stably expressing cKIT kinase), mouse BaF3-tel-cKit-N882K (stably expressing cKIT-N882K mutant activated kinase), mouse BaF3-tel-cKit-D816V (stably expressing cKIT-D816V mutant activated kinase), mouse BaF3-tel-cKit-T670I (stably expressing cKIT-T670I mutant activated kinase), mouse TPR-MET-BaF3 (stably expressing MET kinase), mouse tel-BaF3-EGFR (stably expressing EGFR kinase), mouse BaF3-FL-EGFR-L858R (stably expressing EGFR[L858R]mutant activated kinase), mouse tel-BaF3-BLK (stably expressing BLK kinase), mouse tel-JAK1-BaF3 (stably expressing JAK1 kinase) and the like were also used (see Table 2 for details). The above cell lines were all constructed by our laboratory according to the following method: the kinase region sequences of human FLT3/ITD, FLT3 D835Y, BMX, FLT3, FLT3[ITD+D835Y], FLT3[ITD+F691L], cKIT, cKIT [N882K], cKIT [D816V], cKIT [T670I], MET, EGFR, EGFR [L858R], BLK, JAK1, FLT3[K663Q], FLT3[D835V], FLT3[D835H], PDGFRa, PEGFRb, VEGFR2, JAK2, JAK3, ABL were amplified by PCR, and inserted into MSCV-Puro vectors with N-terminal TEL or TPR fragments (purchased from Clontech), respectively. The vectors were stably transfected into mouse BaF3 cells (purchased from ATCC) by means of retrovirus, and the growth factor IL-3 were removed, eventually obtaining cell lines that are transferred protein (FLT3/ITD, FLT3 D835Y, BMX, FLT3, FLT3[ITD D835Y], FLT3[ITD+F691L], cKIT, cKIT [N882K], cKIT [D816V], cKIT [T670I], MET, EGFR, EGFR [L858R], BLK, JAK1, FLT3[K663Q], FLT3[D835V], FLT3[D835H], PDGFRa, PEGFRb, VEGFR2, JAK2, JAK3, ABL)-dependent.
as §3

In assay [5] the test system is BaF3-FLT3 [ITD]. Kind of assay: Cell proliferation, Cell Titer-Glo, GI50. The settings on record: Mus musculus, Ba/F3 FLT3-ITD, 72 hours. The method, then:
as §1, §4, §3

The test system of assay [6] is BaF3-TEL-FLT3 [D835V]. Kind of assay: Cell proliferation, Cell Titer-Glo, GI50. The settings on record: Mus musculus, 72 hours. The procedure:
as §1, §4, §3

Assay [7] relates to BaF3-TEL-FLT3 [D835Y]. Kind of assay: Cell proliferation, Cell Titer-Glo, GI50. The conditions noted are these: Mus musculus, 72 hours. The procedure: as §1, §4, §3
For assay [8], the system named is BaF3-TEL-FLT3 [K663Q]. Kind of assay: Cell proliferation, Cell Titer-Glo, GI50. The conditions noted are these: Mus musculus, 72 hours. The procedure: as §1, §4, §3
Assay [9] has as its system BaF3-TEL-FLT3. Kind of assay: Cell proliferation, Cell Titer-Glo, GI50. The settings on record: Mus musculus; BaF3-TEL-FLT3, 72 hours. The method, then: as §1, §4, §3
Assay [10] has as its system BaF3-TEL-cKIT. Kind of assay: Cell proliferation, Cell Titer-Glo, GI50. The conditions noted are these: Mus musculus, 72 hours. The procedure: as §1, §4, §3
Assay [11] deals with BaF3-TEL-cKit [D816V]. Kind of assay: Cell proliferation, Cell Titer-Glo, GI50. The conditions noted are these: Mus musculus, 72 hours. The method, then: as §1, §4, §3
Assay [12] deals with BaF3-TEL-cKit [N882K]. Kind of assay: Cell proliferation, Cell Titer-Glo, GI50. The settings on record: Mus musculus, 72 hours. The procedure: as §1, §4, §3
In assay [13] the test system is BaF3. Kind of assay: Cell proliferation, Cell Titer-Glo, GI50. The settings on record: Mus musculus; BaF3, 72 hours. The method, then:
as §1, §2, §3

Usually GI50 stands for the concentration giving 50% growth inhibition.

`CC(C)CNC(=O)Nc1ccc(-n2nc(-c3ccc(OCCN4CCOCC4)cc3)c3c(N)ncnc32)cc1` [Compound 4, 1-(4-(4-amino-3-(4-(2-morpholinoethoxy)phenyl)-1H-pyrazolo[3,4-d]pyrimidin-1-yl)phenyl)-3-isobutylurea]: the GI50 in [1] is 2500 nM; in [2], 2800 nM; in assay [3], greater than 10 µM; in [4], greater than 10000 nM; in assay [5], 1100 nM; in assay [6], greater than 10000 nM. In addition, the GI50 in [7] is greater than 10000 nM; in [8] it was greater than 10 µM; in [9], 5400 nM; in assay [10], greater than 10000 nM; in assay [11] it was greater than 10 µM; in [12] it was greater than 10000 nM. This compound also gave a GI50 in assay [13] greater than 10 µM.
With `CN(C)CCNC(=O)Nc1ccc(-n2nc(-c3ccc(OCCN4CCOCC4)cc3)c3c(N)ncnc32)cc1` [Compound 5, 1-(4-(4-amino-3-(4-(2-morpholinoethoxy)phenyl)-1H-pyrazolo[3,4-d]pyrimidin-1-yl)phenyl)-3-(2-(dimethylamino)ethyl)urea], the concentration for 50% growth inhibition (GI50) in assay [1] was 130 nM; in [2] it was 82 nM; in [3] it was 9.2 µM; in assay [4], 1300 nM; in assay [5], 100 nM; in assay [6], 1700 nM. In addition, the GI50 is 1300 nM in assay [7]; 3.7 µM in [8]; 320 nM in assay [9]; 3500 nM in assay [10]; 8.3 µM in assay [11]; 3300 nM in [12]. The GI50 in assay [13] was 3.8 µM.
Turning to `CC(C)(C)c1ccc(NC(=O)Nc2ccc(-n3nc(-c4ccc(OCCN5CCOCC5)cc4)c4c(N)ncnc43)cc2)cc1` [Compound 10, 1-(4-(4-amino-3-(4-(2-morpholinoethoxy)phenyl)-1H-pyrazolo[3,4-d]pyrimidin-1-yl)phenyl)-3-(4-(tert-butyl)phenyl)urea], the GI50 is 81 nM in [1]; 63 nM in assay [2]; 8.5 µM in [3]; 4400 nM in assay [4]; 24 nM in [5]; 4500 nM in assay [6]. Further, the 50% growth inhibitory concentration (GI50) is 4400 nM in assay [7]; greater than 10 µM in assay [8]; 190 nM in assay [9]; 990 nM in assay [10]; 4.4 µM in assay [11]; 1100 nM in assay [12]. The compound further had a GI50 in [13] greater than 10 µM.
As for `Nc1ncnc2c1c(-c1ccc(OCCN3CCOCC3)cc1)nn2-c1ccc(NC(=O)Nc2ccc(Cl)c(C(F)(F)F)c2)cc1` [Compound 12, 1-(4-(4-amino-3-(4-(2-morpholinoethoxy)phenyl)-1H-pyrazolo[3,4-d]pyrimidin-1-yl)phenyl)-3-(4-chloro-3-(trifluoromethyl)phenyl)urea], the concentration for 50% growth inhibition (GI50) in assay [1] was 3 nM; in assay [2] it was 3 nM; in assay [3] it was 2.4 µM; in assay [4] it was 1600 nM; in assay [5], 3 nM; in [6], 210 nM. In addition, the GI50 is 1600 nM in assay [7]; 5.4 µM in assay [8]; 12 nM in assay [9]; 140 nM in [10]; 4 µM in assay [11]; 96 nM in assay [12]. The same compound displayed a GI50 in assay [13] of 3 µM.
For `CCN1CCN(Cc2ccc(-c3nn(-c4ccc(NC(=O)Nc5cc(C(C)(C)C)on5)cc4)c4ncnc(N)c34)cc2)CC1` [Compound 20, 1-(4-(4-amino-3-(4-((4-ethylpiperazin-1-yl)methyl)phenyl)-1H-pyrazolo[3,4-d]pyrimidin-1-yl)phenyl)-3-(5-(tert-butyl)isoxazol-3-yl)urea], the 50% growth inhibitory concentration (GI50) in [1] is less than 0.3 nM; in assay [2], less than 0.3 nM; in assay [3], 1.7 µM; in assay [4], 240 nM; in assay [5], 0.9 nM; in [6], 8 nM. Further, the 50% growth inhibitory concentration (GI50) in assay [7] is 240 nM; in [8], 1.6 µM; in [9], 2 nM; in [10], 40 nM; in assay [11] it was 1.9 µM; in assay [12], 9 nM. This compound also came in with a 50% growth inhibitory concentration (GI50) in assay [13] of 2.5 µM.
Consider `CC(C)(C)c1cc(NC(=O)Nc2ccc(-n3nc(-c4ccc(CN5CCOCC5)cc4)c4c(N)ncnc43)cc2)no1` [Compound 23, 1-(4-(4-amino-3-(4-(morpholinomethyl)phenyl)-1H-pyrazolo[3,4-d]pyrimidin-1-yl)phenyl)-3-(5-(tert-butyl)isoxazol-3-yl)urea], for which the 50% growth inhibitory concentration (GI50) in assay [1] was less than 0.3 nM; in assay [2], less than 0.3 nM; in assay [3], 4.1 µM; in assay [7], 1 nM; in [8], 5.4 µM; in assay [9], less than 0.3 nM. The GI50 amounted to 12 nM in [10] and 5.9 µM in assay [13].
Regarding `CC(C)(C)c1cc(NC(=O)Nc2ccc(-n3nc(-c4cccnc4)c4c(N)ncnc43)cc2)no1` [Compound 26, 1-(4-(4-amino-3-(pyridin-3-yl)-1H-pyrazolo[3,4-d]pyrimidin-1-yl)phenyl)-3-(5-(tert-butyl)isoxazol-3-yl)urea], the 50% growth inhibitory concentration (GI50) in assay [1] was 1 nM; in assay [2], less than 0.3 nM; in assay [3], greater than 10 µM; in assay [4] it was 610 nM; in [5] it was 0.7 nM; in assay [6], 20 nM. Also, the GI50 in assay [7] was 610 nM; in assay [8] it was greater than 10 µM; in [9] it was 1 nM; in assay [10] it was 38 nM; in [11] it was 7.6 µM; in assay [12], 29 nM. Moreover, the 50% growth inhibitory concentration (GI50) in assay [13] was greater than 10 µM.
With `CC(C)(C)c1cc(NC(=O)Nc2ccc(-n3nc(-c4ccc(NS(C)(=O)=O)cc4)c4c(N)ncnc43)cc2)no1` [Compound 27], the 50% growth inhibitory concentration (GI50) in [1] is 1 nM; in [2], 0.6 nM; in assay [3] it was greater than 10 µM; in [4], 600 nM; in assay [5], 1 nM; in assay [6], 22 nM. Also, the concentration for 50% growth inhibition (GI50) is 600 nM in assay [7]; greater than 10 µM in [8]; 2 nM in [9]; 120 nM in [10]; greater than 10 µM in assay [11]; 51 nM in [12]. The same compound gave a GI50 in assay [13] greater than 10 µM.
Turning to `CC(C)(C)c1cc(NC(=O)Nc2ccc(-n3nc(-c4ccc(N5CCOCC5)nc4)c4c(N)ncnc43)cc2)no1` [Compound 28, 1-(4-(4-amino-3-(6-morpholinopyridin-3-yl)-1H-pyrazolo[3,4-d]pyrimidin-1-yl)phenyl)-3-(5-(tert-butyl)isoxazol-3-yl)urea], the GI50 in [1] was 2 nM; in assay [2], 1 nM; in assay [3], greater than 10 µM; in assay [5] it was 2 nM; in assay [7] it was 3 nM; in assay [8], greater than 10 µM. Besides, the GI50 in assay [9] amounted to 4 nM; in assay [10], 41 nM; in [13] it was 6.9 µM.
